According to the NIST ThermoML archive (doi:10.1016/j.fluid.2015.05.002):

Details: Liquid; for mass density: 295 K, 101.33 kPa, Vibrating tube method; for vapor or sublimation pressure: Closed cell (Static) method

CC(C)CC(C)(C)C [2,2,4-trimethylpentane]
Details	mass density [kg/m3]	vapor or sublimation pressure [kPa]
–	690.4	–
388.02 K	–	163
392.98 K	–	184
398.09 K	–	208
403.09 K	–	233
408.08 K	–	262
413.12 K	–	293
418.11 K	–	326
423.15 K	–	362
428.13 K	–	401
433.09 K	–	442
438.15 K	–	488
443.1 K	–	536
448.13 K	–	589
453.09 K	–	644
458.11 K	–	704
463.05 K	–	769
468.08 K	–	837
473.08 K	–	911
483.1 K	–	1072
493.14 K	–	1255
503.18 K	–	1459
508.17 K	–	1571

Cc1ccco1 [2-methylfuran]
Details	mass density [kg/m3]	vapor or sublimation pressure [kPa]
–	916.7	–
353.1 K	–	167
358.07 K	–	194
363.06 K	–	224
368.02 K	–	257
372.97 K	–	294
377.98 K	–	334
382.99 K	–	379
387.96 K	–	427
392.97 K	–	480
397.93 K	–	538
402.98 K	–	600
407.95 K	–	670
412.96 K	–	743
417.96 K	–	823
422.94 K	–	909
427.97 K	–	1001
432.93 K	–	1099
437.97 K	–	1206
442.93 K	–	1319
447.95 K	–	1442
452.97 K	–	1571
457.97 K	–	1710
462.96 K	–	1856
467.96 K	–	2013
472.97 K	–	2179
482.96 K	–	2541
492.93 K	–	2947
502.93 K	–	3403
507.92 K	–	3651

CC1CCCO1 (stereo not given) [2-methyltetrahydrofuran]
Details	mass density [kg/m3]	vapor or sublimation pressure [kPa]
–	851.6	–
368.95 K	–	163
372.89 K	–	181
377.88 K	–	207
382.89 K	–	237
387.86 K	–	268
392.93 K	–	304
398.03 K	–	344
403.02 K	–	386
408.05 K	–	432
413.07 K	–	483
418.08 K	–	538
423.11 K	–	597
428.18 K	–	661
433.16 K	–	730
438.19 K	–	804
443.19 K	–	883
448.17 K	–	968
453.22 K	–	1060
458.19 K	–	1157
463.25 K	–	1262
468.25 K	–	1372
473.2 K	–	1489
483.25 K	–	1746
493.28 K	–	2035
503.24 K	–	2358
508.21 K	–	2532
